This note sets out measurements from ChEMBL document CHEMBL4609980, “Identification of antimalarial leads with dual falcipain-2 and falcipain-3 inhibitory activity” (Bioorg Med Chem, 2020).

Structures are written as SMILES. Calls of active or inactive are those of the source. No cut-off for these calls is given here.

Assay [1] concerns the target T1, Falcipain 2 (Plasmodium falciparum) (UniProt Q9N6S8).
T1 sequence (whole entry): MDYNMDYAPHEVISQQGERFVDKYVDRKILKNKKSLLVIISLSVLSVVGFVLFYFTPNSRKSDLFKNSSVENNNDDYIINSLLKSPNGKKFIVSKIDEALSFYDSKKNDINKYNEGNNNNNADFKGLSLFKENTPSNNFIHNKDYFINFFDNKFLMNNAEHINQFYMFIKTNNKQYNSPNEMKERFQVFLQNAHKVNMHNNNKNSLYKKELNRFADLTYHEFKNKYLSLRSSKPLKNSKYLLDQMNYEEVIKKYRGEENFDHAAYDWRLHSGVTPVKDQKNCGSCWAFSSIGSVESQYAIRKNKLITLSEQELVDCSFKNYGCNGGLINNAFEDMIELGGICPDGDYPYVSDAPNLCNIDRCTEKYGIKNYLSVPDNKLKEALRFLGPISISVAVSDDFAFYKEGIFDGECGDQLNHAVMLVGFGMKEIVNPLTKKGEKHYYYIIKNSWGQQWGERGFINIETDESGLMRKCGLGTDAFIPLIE
The experiment in a line: Inhibition of recombinant Plasmodium falciparum falcipain-2 expressed in bacterial expression system using ZFR-AMC as substrate at 100 uM measured for 30 mins by fluorimetric assay relative to control.

Assay [2] addresses T2, Cysteine protease falcipain-3 (Plasmodium falciparum) (UniProt Q9NAW4).
T2 sequence (whole entry): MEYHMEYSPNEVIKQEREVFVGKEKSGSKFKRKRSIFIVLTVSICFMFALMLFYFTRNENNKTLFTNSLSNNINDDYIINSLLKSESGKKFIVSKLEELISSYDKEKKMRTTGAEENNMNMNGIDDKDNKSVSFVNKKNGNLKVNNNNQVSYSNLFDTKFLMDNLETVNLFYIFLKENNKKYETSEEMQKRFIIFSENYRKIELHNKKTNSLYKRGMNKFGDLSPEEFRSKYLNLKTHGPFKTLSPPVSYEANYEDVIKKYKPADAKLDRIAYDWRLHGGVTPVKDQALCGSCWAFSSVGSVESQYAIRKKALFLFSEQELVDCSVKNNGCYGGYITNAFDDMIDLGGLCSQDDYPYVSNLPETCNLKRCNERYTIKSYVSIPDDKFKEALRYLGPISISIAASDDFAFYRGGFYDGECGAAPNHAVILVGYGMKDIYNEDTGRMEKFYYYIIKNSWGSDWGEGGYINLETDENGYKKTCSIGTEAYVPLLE
The experiment in a line: Inhibition of recombinant Plasmodium falciparum falcipain-3 expressed in bacterial expression system using ZFR-AMC as substrate at 100 uM measured for 30 mins by fluorimetric assay relative to control.

Another assay deals with T3, Falcipain 2 (Plasmodium falciparum, UniProt Q9N6S8).
T3 sequence (Q9N6S8 whole entry): T1 sequence (whole entry)
As to the kind of experiment: Inhibition of recombinant Plasmodium falciparum falcipain-2 expressed in bacterial expression system using ZFR-AMC as substrate measured for 30 mins by fluorimetric assay.

Assay [3] relates to Plasmodium falciparum. As to the kind of experiment: Antimalarial activity against Plasmodium falciparum 3D7 infected in human erythrocytes assessed as increase in arrest of ring stage at 100 uM incubated for 46 hrs by giemsa staining based light microscopy. Format: functional, organism-based.
The target in assay [4] is T4, Cysteine protease falcipain-3 (Plasmodium falciparum, UniProt Q9NAW4).
T4 sequence (Q9NAW4 whole entry): T2 sequence (whole entry)
The experiment in a line: Inhibition of recombinant Plasmodium falciparum falcipain-3 expressed in bacterial expression system using ZFR-AMC as substrate measured for 30 mins by fluorimetric assay.

For assay [5], the system named is Plasmodium falciparum. The experiment in a line: Antimalarial activity against Plasmodium falciparum 3D7 infected in human erythrocytes assessed as increase in arrest of ring stage at 100 uM measured after 46 hrs by giemsa staining based light microscopy. Format: functional, organism-based.
In assay [6] the test system is Plasmodium falciparum. As to the kind of experiment: Antimalarial activity against Plasmodium falciparum 3D7 infected in human erythrocytes assessed as increase in arrest of ring stage at 100 uM incubated for 54 hrs by giemsa staining based light microscopy relative to control. Format: functional.
For assay [7], the system named is Plasmodium falciparum. As to the kind of experiment: Antimalarial activity against Plasmodium falciparum 3D7 infected in human erythrocytes assessed as food-vacoules abnormalities at 10 uM incubated for 54 hrs by giemsa staining based light microscopy. The class given is functional, organism-based.
For assay [8], the system named is Plasmodium falciparum. As to the kind of experiment: Antimalarial activity against Plasmodium falciparum 3D7 infected in human erythrocytes assessed as morphological abnormalities at 10 uM incubated for 54 hrs by giemsa staining based light microscopy. The class given is functional, organism-based.

By inhibition is commonly meant the relative decrease from the control value, in per cent. As for `O=C(CN1CCN(C2=NCCC=N2)CC1)Nc1cccc2ccccc12`, the inhibition in [1] was found to be 19%; in [2], 21%.

The term IC50 denotes the concentration needed to halve the response being measured. Turning to `CN1CCCc2cc(CCNC(=O)C(=O)Nc3ccc4c(c3)OCO4)ccc21`, the values for the IC50 (on Falcipain 2; in [4]) were 14.7 µM and 9.98 µM, respectively. Moreover, the result with Plasmodium falciparum [3] was Active. Also, the outcome with Plasmodium falciparum [5] was inactive. The values for the inhibition in assay [1] and in assay [2] were 53% and 61%, respectively.

For the molecule `O=C(Nc1ccc([C@@H]2C=c3ccccc3=N2)cc1)[C@@H]1CCCN1C1CCOCC1`, the figures for the inhibition in assay [1] and in assay [2] were 46% and 50%, respectively.

As for `O=C(CN1CCC(c2ccccc2)C1)NC1CCC2(CC1)OCCO2` (stereo unspecified), the values for the inhibition in assay [1] and in [2] were 22% and 69%, respectively.

As to `O=C(CCC1=CC(=O)C2C(=N1)SC1=C2CCCC1)NC1CCCCNC1=O` (stereo unspecified), the inhibition in assay [1] was 49%; in [2], 39%.

In the case of `O=C(CNC(=O)N1CCN(Cc2ccccc2)CC1)NC1=CC2=CC=N[C@@H]2C=C1`, the inhibition in assay [1] was 39%; in assay [2], 15%.

In the case of `O=C(CN1CCC(C2N=c3ccccc3=N2)CC1)Nc1cccc2ccccc12`, the inhibition in [1] turned out to be 47%; in [2], 49%.

With `Cc1ccc(NC(=O)CN2CCC[C@H](c3nc4ccccc4o3)C2)cc1C`, the inhibition in assay [1] was found to be 41%; in assay [2], 9%.

As for `Cc1cccc(O)c1OC1CCN(CC(=O)Nc2ccc(CN3CCOCC3)cc2)CC1`, the inhibition in [1] was 43%; in [2] it was 25%.

On to `O=C1CN(CC(=O)NC2CCOc3ccccc32)CCN1` (stereo unspecified), for which the inhibition in assay [1] and in assay [2] was 25% throughout.

Consider `O=C(NCCCNC(=O)c1cc2ccccc2[nH]1)c1ccc(-c2ccccc2)cc1`, for which the values for the IC50 (on Falcipain 2; in assay [4]) were 12.2 µM and 8.56 µM, respectively. Further, in the assay on Plasmodium falciparum [6], the Activity was 100%. For the same molecule, the inhibition in assay [1] is 51%; in assay [2], 62%.

On to `Cc1ccc(NCC(=O)NC2CC2)cc1S(=O)(=O)C1CCCCC1`, for which the results for the inhibition in assay [1] and in [2] were 19% and 6%, respectively.

`O=C1C[C@H](C(=O)Nc2ccccc2)NC(N2CCN(Cc3ccccc3)CC2)=N1`: the figures for the inhibition in [1] and in [2] were 44% and 17%, respectively.

On to `CC(C)C[C@H](NC(=O)[C@H]1O[C@@H]1C(=O)O)C(=O)NCCCCN=C(N)N`, for which the outcome with Plasmodium falciparum [7] and in the assay on Plasmodium falciparum [8] was Active.

`CCc1ccc(NC(=O)CN2CCN(c3nc4ccccc4s3)CC2)cc1`: the inhibition was determined as 43% in [1] and 26% in assay [2].

On to `O=C1CCc2cc(CNC(=O)Cn3ncc4ccccc4c3=O)ccc2C1`, for which the inhibition in [1] was 42%; in assay [2], 41%.

`O=C(NCCCn1nc2n(c1=O)CCCC2)c1cc2c(cc1O)CCCC2`: the inhibition in assay [1] is 42%; in assay [2] it was 15%.
